The record followed here is paper PMC3544154 (Nature communications, 2011).

The subject of the test is neuroligin-1 induced synaptogenesis. The experiment in a line: Synapse microarray coculture assay: NLG1-induced synapsin clustering. Type of test: cell-based, rat. Particulars: for activity in coculture assay / NLG1-induced synaptogenesis (in words): synapse microarray, no single concentration stated.

On to `Cc1[nH]c2ccccc2c1CCNCc1ccc(/C=C/C(=O)NO)cc1` [LBH-589], for which the “activity in coculture assay / NLG1-induced synaptogenesis (in words)” value is “potent”. As to `CCC(=O)CCCCC[C@@H]1NC(=O)[C@H]2CCCCN2C(=O)[C@H]([C@@H](C)CC)NC(=O)[C@H](Cc2cn(OC)c3ccccc23)NC1=O` [apicidin], the “activity in coculture assay / NLG1-induced synaptogenesis (in words)” value is listed as “greater potency than MS-275”. Still for that read-out and setting: as for `O=C(CCCCCN1C(=O)c2cccc3cccc(c23)C1=O)NO` [scriptaid], the entry is “potent”. `CCCC(CCC)C(=O)O` [valproic acid]: the “effect on NLG1-induced synaptogenesis (in words)” value (10 μM) was “neither of the two compounds, valproic acid and phenylbutyric acid, affected synaptogenesis”.
